How the values were obtained:
[1] = molecular target: T1, mouse 17β-HSD 1 (Mus musculus, UniProt P51656); experiment: In vitro enzymatic activity, recombinant mouse 17β-HSD 1; type: biochemical; details: 2 µM compound, 15 nM 3H-estrone, read-out: Observed % inhibition
T1 construct: Full length cDNAs of several 17β-HSDs type 1 originating from different species were cloned; made in house; host or cells: E.coli BL21 DE3 Codon Plus RP
T1 sequence (P51656 1-344): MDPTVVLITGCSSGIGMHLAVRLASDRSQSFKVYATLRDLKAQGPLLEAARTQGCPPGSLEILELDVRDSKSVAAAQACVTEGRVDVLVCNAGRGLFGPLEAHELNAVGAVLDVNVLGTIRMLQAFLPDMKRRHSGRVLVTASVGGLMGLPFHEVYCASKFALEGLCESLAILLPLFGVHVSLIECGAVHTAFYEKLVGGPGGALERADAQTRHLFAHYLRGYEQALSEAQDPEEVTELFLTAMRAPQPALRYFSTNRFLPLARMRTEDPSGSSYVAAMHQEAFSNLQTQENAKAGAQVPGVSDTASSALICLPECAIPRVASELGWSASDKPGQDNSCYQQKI
Source text: (§1) Full length cDNAs of several 17β-HSDs type 1 originating from different species were cloned either into the pQE30 vector (human 17β-HSD 1, coding for acc. no. NP_000404) for expression as His-Tag protein or into a modified pGex-2T vector [63] (mouse 17β-HSD 1, acc. no. NP_034605; rat 17β-HSD 1, acc. no. NP_036983; marmoset 17β-HSD 1, acc. no. AAG01115; porcine 17β-HSD 1, acc. no. NP_001121944) for expression as GST-fusion proteins. The marmoset 17β-HSD 1 enzyme sequence was updated by the missing N-terminal part (AF272013) and the new porcine sequence was submitted to GenBank (NP_001121944). Human 17β-HSDs 2, 4, 5 (AKR1C3, the latter kindly provided by Dr. T. Penning) and 7 were all cloned into the modified pGEX-2T vector. For 17β-HSD 4 only the SDR-domain converting the steroids was subcloned. Plasmids were transformed into E.coli BL21 DE3 Codon Plus RP (Stratagene) and enzyme expression was induced by 0.5 mM IPTG. After 4h incubation at 37°C with continuous shaking bacteria were pelleted by centrifugation at 10.000×g. Pellets were stored until use at −20°C.
(§2) The bacteria containing recombinant enzymes were resuspended in PBS and enzymatic assays were performed in 100 mM sodium phosphate buffer at pH 6.6 for the reductive reaction and at pH 7.7 for the oxidative reaction. […] All substrates were purchased from NEN/Perkin Elmer. The cofactors NADPH (Sigma; for reductive reactions) and NAD^+ (Serva, for oxidative reactions) were used at final concentrations of 0.5 mg/ml. […] The incubation at 37°C was stopped with 0.21 M ascorbic acid in methanol∶acetic acid 99∶1 (v∶v) after the time needed to convert approximately 30% of the substrate in a control assay with 1% DMSO, without inhibitor candidates. […] The solvent used was acetonitrile∶water (43∶57, v∶v) at a flow rate of 1 ml/min. Radioactivity was detected by online-scintillation counting (Berthold LB506D) after mixing with ReadyFlowIII (Beckman). Conversion was calculated from integration of substrate and product peaks. […] All assays were run in duplicates of two independent experiments and mean values are reported. The IC50 values were determined by the One Ligand Binding model of SigmaPlot kinetics module.

[2] = molecular target: T2, rat 17β-HSD 1 (Rattus norvegicus, UniProt P51657); experiment: In vitro enzymatic activity, recombinant rat 17β-HSD 1; type: biochemical; details: 2 µM compound, 15 nM 3H-estrone, read-out: Observed % inhibition
T2 construct: Full length cDNAs of several 17β-HSDs type 1 originating from different species were cloned; made in house; host or cells: E.coli BL21 DE3 Codon Plus RP
T2 sequence (P51657 1-344): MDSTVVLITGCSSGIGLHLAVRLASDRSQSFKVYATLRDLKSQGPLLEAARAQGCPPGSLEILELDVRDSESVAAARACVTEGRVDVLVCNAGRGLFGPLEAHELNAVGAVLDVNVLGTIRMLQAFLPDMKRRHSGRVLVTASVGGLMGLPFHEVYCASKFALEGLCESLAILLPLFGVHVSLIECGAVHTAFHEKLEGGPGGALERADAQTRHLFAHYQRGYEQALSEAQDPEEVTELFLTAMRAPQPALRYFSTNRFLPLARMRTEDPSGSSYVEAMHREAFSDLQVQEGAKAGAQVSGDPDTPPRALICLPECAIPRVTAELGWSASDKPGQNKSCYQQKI
Source text: as §1, §2

[3] = system: 17β-HSD 1 orthologs of five species; experiment: In vitro enzymatic activity, 17β-HSD 1 orthologs of five species taken together; type: biochemical, human, marmoset, mouse, pig, rat; details: average over the 17β-HSD 1 orthologs of the species; 2 µM compound
[4] = molecular target: T3, human 17β-HSD 1 (Homo sapiens, UniProt P14061); experiment: In vitro enzymatic activity, recombinant human 17β-HSD 1 (estrone reduction); type: biochemical; details: pH 6.6, read-out: Observed % inhibition
T3 construct: Full length cDNAs of several 17β-HSDs type 1 originating from different species were cloned; made in house; host or cells: E.coli BL21 DE3 Codon Plus RP
T3 sequence (P14061 1-328): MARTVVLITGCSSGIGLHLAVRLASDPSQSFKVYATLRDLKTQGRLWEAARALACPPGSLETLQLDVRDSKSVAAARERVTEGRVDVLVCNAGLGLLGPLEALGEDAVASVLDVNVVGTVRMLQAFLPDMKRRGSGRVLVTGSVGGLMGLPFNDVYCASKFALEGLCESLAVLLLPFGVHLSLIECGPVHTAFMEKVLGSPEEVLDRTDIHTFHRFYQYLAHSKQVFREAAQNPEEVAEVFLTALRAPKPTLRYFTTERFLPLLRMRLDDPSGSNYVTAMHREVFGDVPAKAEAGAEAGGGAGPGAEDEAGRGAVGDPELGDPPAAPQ
Source text: as §1, §2

[5] = molecular target: T4, marmoset 17β-HSD 1 (Callithrix jacchus, UniProt Q9GME2); experiment: In vitro enzymatic activity, recombinant marmoset 17β-HSD 1; type: biochemical; details: marmoset 17β-HSD 1; 2 µM compound; 15 nM 3H-estrone; read-out: Observed % inhibition
T4 sequence (Q9GME2 1-314): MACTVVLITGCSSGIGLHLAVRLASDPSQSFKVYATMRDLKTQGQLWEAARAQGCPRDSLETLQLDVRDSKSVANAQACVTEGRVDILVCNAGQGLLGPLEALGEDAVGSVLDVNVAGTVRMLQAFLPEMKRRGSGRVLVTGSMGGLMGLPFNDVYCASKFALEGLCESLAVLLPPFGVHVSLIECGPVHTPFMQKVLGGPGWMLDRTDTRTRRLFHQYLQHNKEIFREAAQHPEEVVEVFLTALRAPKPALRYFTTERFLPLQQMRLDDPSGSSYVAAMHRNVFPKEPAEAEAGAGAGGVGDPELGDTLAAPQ
Source text: as §1, §2

[6] = molecular target: T5, porcine 17β-HSD 1 (Sus scrofa, UniProt B2X0A4); experiment: In vitro enzymatic activity, recombinant porcine 17β-HSD 1; type: biochemical, pig; details: read-out: Observed % inhibition
T5 sequence (B2X0A4 1-321): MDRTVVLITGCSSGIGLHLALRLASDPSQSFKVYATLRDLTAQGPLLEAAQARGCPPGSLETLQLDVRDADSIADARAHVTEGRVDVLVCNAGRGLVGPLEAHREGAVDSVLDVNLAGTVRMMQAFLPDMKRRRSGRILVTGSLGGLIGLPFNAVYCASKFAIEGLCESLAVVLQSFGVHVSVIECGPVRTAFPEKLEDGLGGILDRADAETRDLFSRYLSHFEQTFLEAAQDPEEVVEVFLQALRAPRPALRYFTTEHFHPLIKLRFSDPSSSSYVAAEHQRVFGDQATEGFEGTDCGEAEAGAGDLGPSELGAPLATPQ
Source text: as §1, §2

## C[C@]12CC[C@@H]3c4ccc(O)cc4CC[C@H]3[C@@H]1CCC2=O [Compound 6, estrone, reference compound]
[1]
  inhibition at 2 µM: 101%
[2]
  inhibition at 2 µM: 79.1%
[3]
  Observed % inhibition, average: 95.4%
[4]
  inhibition at 2 µM: 101%
[5]
  inhibition at 2 µM: 110%
[6]
  inhibition at 2 µM: 86.3%

Reference: article PMC2882332, “Species Used for Drug Testing Reveal Different Inhibition Susceptibility for 17beta-Hydroxysteroid Dehydrogenase Type 1” (PLoS ONE, 2010)
